# Source: publication PMC6748665 (Journal of Medicinal Chemistry, 2019)
# Target: T1, MtbTrmD (Mycobacterium tuberculosis, UniProt P9WFY7)
# T1 sequence (P9WFY7 1-230): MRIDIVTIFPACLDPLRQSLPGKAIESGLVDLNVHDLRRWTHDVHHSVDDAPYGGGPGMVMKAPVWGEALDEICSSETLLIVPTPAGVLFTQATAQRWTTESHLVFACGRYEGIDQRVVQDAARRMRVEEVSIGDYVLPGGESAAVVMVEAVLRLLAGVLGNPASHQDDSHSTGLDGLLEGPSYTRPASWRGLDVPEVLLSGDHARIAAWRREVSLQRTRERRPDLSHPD
# Test: Surface plasmon resonance
# Assay type: binding
# Details: SPR
smiles,measurement,value
"CCCCCCCCNCc1ccc(CNC(=O)c2csc3nc[nH]c(=O)c23)cc1 [Compound 15, N-(4-((Octylamino)methyl)benzyl)-4-oxo-3,4-dihydrothieno[2,3-d]pyrimidine-5-carboxamide]",lower affinity for MtbTrmD compared to the PaTrmD binding affinity,over 100 fold
